Reference: patent US9221800B2, “Isoxazole treatments for diabetes” (The Board of Regents of the University of Texas System, priority 2011, dated 2015)

Legend:
human islets = experiment: Gene expression by quantitative RT-PCR in cultured human islets; assay type: cell-based
Method: MIN6 cells were cultured in DMEM (Gibco), containing 25 mM glucose, 10% fetal bovine serum, 10 mM Hepes pH 7.4, 10.2 mM L-glutamine, […] sodium pyruvate, 2.5 mM β-mercaptoethanol, 100 U/ml penicillin and 100 μg/ml streptomycin at 37° C. in 10% CO2. Human islets were obtained from the ICR Basic Science Islet Distribution and from the University of Alabama, Birmingham Islet Resource Facility and were cultured in RPMI 1640 with 11 mM glucose for up to 1 year. The medium was changed twice weekly and the islets were subcultured when they reached 90% confluence. For Isx treatments, cells were incubated in medium containing either Isx or the equivalent volume of DMSO vehicle (0.04%). To measure GSIS, cells were placed in Krebs-Ringer bicarbonate/Hepes containing 0.1% bovine serum albumin and 2 mM glucose for 2 h, and stimulated for 15 min with 20 mM glucose, a 1× amino-acid mixture (concentrations as in DMEM), or 50 nM Exendin-4. U0126 (10 μM), nifedipine (3 μM), BAPTA (10 μM), wortmanin (0.5 μM) or FK506 (0.1 μM) were added for 1-24 h as indicated.
Total RNA was extracted from human islet preparations with TRI reagent according to manufacturer's protocol (Ambion). cDNA was prepared from total RNA by a mixture of random hexamer- and oligo-dT-primed reverse transcription (iScript Biorad). The expression of insulin and glucagon relative to 18S RNA was evaluated by TaqMan assays (Applied Biosystems). Relative expression of pancreatic factors was determined using Power SYBR Green PCR Master Mix (Applied Bio systems). Primer sequences for qRT-PCR are in STable 1. SYBR Green and TaqMan probe-based PCR was performed using the ABI 7500 DNA Sequence Detection System with standard fluorescent chemistries and thermal cycling conditions specified by the manufacturer: 50° C. for 2 min, 95° C. for 10 min for one cycle and an additional 40 cycles at 95° C. for 15 sec, and then 58° C. for 1 min.

HAT = HAT activity in nuclear extracts of treated MIN6 cells; assay type: cell-based, mouse
Method: The histone acetyl transferase and deacetylase activities were measured in 50 μg of nuclear protein using the HAT and HDAC activity colorimetric assay kits from Biovision Biotechnology according to manufacturer's recommendations.

[1] = human islets in culture for 6 months, Isx for 1-2 days (40 μM, FIG. 1A)
[2] = islets in culture for one year, 40 μM Isx 2-8 days

expression of glucokinase and Glut2 (human islets; islets in culture for one year, peaking after 4 days of exposure): increased markedly
Compound: O=C(NC1CC1)c1cc(-c2cccs2)on1 [Isx, N-cyclopropyl-5-(thiophen-2-yl)isoxazole-3-carboxamide]
glucagon mRNA decrease (human islets; [1]): ~80%
preproinsulin mRNA (human islets; [1]): large increase
PCNA and Oct4 mRNA expression (human islets; islets in culture for one year): Neither PCNA, an indicator of proliferation, nor Oct4, a factor associated with stem cells, showed consistent or substantial changes in mRNA expression
increases in PDX-1, the Hnfs, and Isl1 mRNA (human islets; [2]): relatively small
increases in the other factors (mRNA; other than PDX-1, the Hnfs, Isl1) (human islets; [2]): more than 10 fold
Preproinsulin mRNA increase (human islets; islets in culture for one year, after several days of Isx exposure (FIG. 1D)): ≥ 50 fold
Preproinsulin mRNA increase (human islets; islets in culture for one year, at 24 h (FIG. 1D)): 10 fold
HAT activity increase (HAT; nuclear extracts from Isx-treated MIN6 cells, 24 h (FIG. 4C)): ~2 fold
HAT activity in nuclear extracts of MIN6 cells expressing p300 (HAT; over and above that from expressed p300): increased
